{"source": "paper PMC10979003", "about": "“Development and crystal structures of a potent second-generation dual degrader of BCL-2 and BCL-xL” (Nature Communications, 2024)", "key": {"BCL-xL D107A": {"target": "T1, BCL-xL D107A (Homo sapiens, UniProt Q07817, D107A)", "T1 construct": "BCL-xL (aa 2-212) and BCL-2 (aa 1-207) transformed cells were grown in LB broth; SMT3 (N); made in house; host or cells: E. coli BL21 (DE3) codon plus", "T1 sequence (Q07817 2-212 D107A)": "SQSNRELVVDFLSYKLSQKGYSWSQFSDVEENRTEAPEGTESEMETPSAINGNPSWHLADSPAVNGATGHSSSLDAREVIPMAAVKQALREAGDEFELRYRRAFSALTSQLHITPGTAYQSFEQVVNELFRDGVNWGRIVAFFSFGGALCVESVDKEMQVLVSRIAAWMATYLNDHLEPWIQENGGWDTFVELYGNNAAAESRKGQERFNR", "assay": "AlphaScreen binary binding, BCL-xL D107A", "conditions": "mean ± s.d., n=3", "method": "(§1) To test the binary/ternary binding affinities of compounds to BCL-2/BCL-xL, AlphaScreen displacement binding assay was performed to test the capabilities of testing compounds to displace a Biotin-tagged Bim (Biotin-[…]) or Bad (Biotin-[…]) from BCL-2 or BCL-xL for BCL-2 and BCL-xL binding affinities, respectively. All reagents were diluted in assay buffer of 25 mM HEPES, pH 7.5, 150 mM NaCl, 0.1% BSA, and 0.005% tween 20 prior incubation. To a 96-well PCR plate (VWR, Cat. No. 82006-636) was added 10 μL Biotin-tagged Bim (15 nM for WT or 50 nM for mutants) or Bad (15 nM for WT or 50 nM for mutants), 10 μL series diluted compounds solution (2 or 3 or 4× dilution), and 10 μL self-made 6×His tagged BCL-2 WT or mutants (25 nM WT or 50 nM mutants) or 10 μL self-made BCL-xL WT and mutants (10 nM WT or 50 nM mutants). […] The luminescence signal was detected on a Biotek’s Synergy Neo2 multimode plate reader installed with an AphaScreen filter cube. The Ki values of each compounds were calculated by fitting data into the “Binding-competitive, One site-Fit Ki” function in GraphPad Prism (9.2.0) based on concentrations of Biotin–peptide used and experimentally determined Kd values of each 6×His protein &&&and Biotin–Peptide pair."}, "BCL-xL R103A/D107A/S110A": {"target": "T2, BCL-xL R103A/D107A/S110A (Homo sapiens, UniProt Q07817, D107A/R103A/S110A)", "T2 construct": "BCL-xL (aa 2-212) and BCL-2 (aa 1-207) transformed cells were grown in LB broth; SMT3 (N); made in house; host or cells: E. coli BL21 (DE3) codon plus", "T2 sequence (Q07817 2-212 R103A/D107A/S110A)": "as the sequence (Q07817 2-212 D107A) above, with R102A, S109A counted along it", "assay": "AlphaScreen binary binding, BCL-xL R103A/D107A/S110A", "conditions": "mean ± s.d., n=3", "method": "as §1"}, "BCL-2 R110A": {"target": "T3, BCL-2 R110A (Homo sapiens, UniProt P10415, R110A)", "T3 construct": "BCL-xL (aa 2-212) and BCL-2 (aa 1-207) transformed cells were grown in LB broth; made in house; host or cells: E. coli BL21 (DE3) codon plus", "T3 sequence (P10415 1-207 R110A)": "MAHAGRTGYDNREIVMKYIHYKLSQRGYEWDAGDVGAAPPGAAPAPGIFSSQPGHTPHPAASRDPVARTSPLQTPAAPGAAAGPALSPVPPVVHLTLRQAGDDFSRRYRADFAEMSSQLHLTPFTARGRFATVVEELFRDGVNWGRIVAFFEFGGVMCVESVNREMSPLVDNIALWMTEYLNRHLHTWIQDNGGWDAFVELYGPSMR", "assay": "AlphaScreen binary binding, BCL-2 R110A", "conditions": "mean ± s.d., n=3", "method": "as §1"}, "BCL-2 E114A": {"target": "T4, BCL-2 E114A (Homo sapiens, UniProt P10415+P40337, E114A)", "T4 construct": "BCL-xL (aa 2-212) and BCL-2 (aa 1-207) transformed cells were grown in LB broth; VHL (aa 54-213) and ElonginBC were co-transformed (VCB); 6xHis (TEV-cleavable) (N, cleaved yes); made in house; host or cells: E. coli BL21 (DE3) codon plus (BCL-2, VCB); Trichoplusia ni High-Five insect cells (Cullin2-Rbx1)", "assay": "Polyubiquitin chain formation assay, BCL-2 E114A", "type": "biochemical", "conditions": "10 μM WH244, 1 h, Fig. 5d", "method": "WT BCL-xL/BCL-2 (5 μM) were ubiquitinated in the presence of E1 SpUba1 (0.1 μM), E2, UbcH5c (1 μM) and Cdc34 (1 μM), ubiquitin (75 μM), VHL-Elongin C-Elongin B complex (0.35 μM), neddylated Cullin2-Rbx1 complex (0.35 μM) and 753b or WH244 (10 μM) at 37 °C in a buffer of 50 mM HEPES, pH 7.5, 10 mM MgCl2, 100 mM NaCl, 2 mM ATP, and 0.5 mM DTT. The reaction mixture was incubated for indicated time points (Supplementary Fig. 4a, b, d, e, g, h) and was terminated by the addition of 1× reducing SDS-PAGE loading buffer. The polyUb chain formation was assessed using immunoblotting as described earlier. For polyUb chain formation on mutant proteins used in this study, the above protocol was used with a fixed time-point of 1 h."}, "[1]": {"target": "T5, VCB/PROTAC/BCL-xL ternary complex (Homo sapiens, UniProt P40337+Q07817)", "T5 construct": "BCL-xL (aa 2-212) and BCL-2 (aa 1-207) transformed cells were grown in LB broth; SMT3 (N); GST (on the VCB complex); made in house; host or cells: E. coli BL21 (DE3) codon plus (stated for the BCL-xL construct)", "T5 sequence (Q15369 17-112)": "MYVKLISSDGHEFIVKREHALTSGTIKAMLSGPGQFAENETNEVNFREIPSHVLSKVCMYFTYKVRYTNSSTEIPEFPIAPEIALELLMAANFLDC", "T5 sequence (Q07817 2-212)": "as the sequence (Q07817 2-212 D107A) above, with A106D counted along it", "T5 sequence (Q15370 whole entry, further chain, the tested form may be a part)": "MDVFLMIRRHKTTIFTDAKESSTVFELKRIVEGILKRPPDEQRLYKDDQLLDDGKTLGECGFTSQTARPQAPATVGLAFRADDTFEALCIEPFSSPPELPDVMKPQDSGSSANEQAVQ", "T5 sequence (P40337 54-213)": "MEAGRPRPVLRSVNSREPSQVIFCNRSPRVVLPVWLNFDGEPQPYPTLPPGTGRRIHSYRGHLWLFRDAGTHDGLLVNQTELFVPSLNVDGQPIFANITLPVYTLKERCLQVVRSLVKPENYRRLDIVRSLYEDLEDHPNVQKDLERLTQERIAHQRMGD", "assay": "AlphaLISA ternary complex assay VCB/PROTAC/BCL-xL", "type": "binding", "conditions": "cell-free AlphaLISA", "method": "Assays were performed at room temperature. All reagents were diluted in assay buffer of 25 mM HEPES, pH 7.5, 150 mM NaCl, 0.1% BSA, and 0.005% tween 20. To a 96-well PCR plate (VWR, Cat. No. 82006-636) were added 10 μL self-made 6×His tagged BCL-xL (100 nM) or BCL-2 (150 nM), 10 μL series diluted compounds solution (4× dilution) and 10 μL of self-made GST-VCB (100 nM). After incubating at room temperature for 15 min, 5 µL of alpha glutathione-donor beads (160 μg/mL, PerkinElmer, Cat. No. 6765300) and 5 µL of anti-6×His acceptor beads (160 μg/mL, PerkinElmer, Cat. No. AL128M) to each well and incubated for additional 45 min in the dark before being transferred to two adjacent wells (17 µL each) of 384-well white OptiPlate (PerkinElmer, Cat. No. 6008280). The luminescence signal was detected on a Biotek’s Synergy Neo2 multimode plate reader installed with an AphaScreen filter cube. Intensity values were plotted in Graphpad Prism (9.2.0) with PROTAC concentration values represented on a log10 scale."}}}
{"compound": "Cc1ncsc1-c1ccc(C(C)NC(=O)C2CC(O)CN2C(=O)C(NC(=O)CCCCCCC(=O)N2CCN(CC3(C)CCC(c4ccc(Cl)cc4)=C(CN4CCN(c5ccc(C(=O)NS(=O)(=O)c6ccc(NC(CCN7CCOCC7)CSc7ccccc7)c(S(=O)(=O)C(F)(F)F)c6)cc5)CC4)C3)CC2)C(C)(C)C)cc1", "note": "(centres unmarked) [753b]", "values": [{"measurement": "Ki", "setting": "BCL-xL D107A", "value": "30.3 ± 4.5", "unit": "nM"}, {"measurement": "Ki", "setting": "BCL-xL R103A/D107A/S110A", "value": "18.4 ± 2.3", "unit": "nM"}]}
{"compound": "Cc1ncsc1-c1ccc([C@H](C)NC(=O)[C@@H]2C[C@@H](O)CN2C(=O)[C@@H](NC(=O)CN2CCN(CC(=O)N3CCN(C[C@]4(C)CCC(c5ccc(Cl)cc5)=C(CN5CCN(c6ccc(C(=O)NS(=O)(=O)c7ccc(N[C@H](CCN8C[C@@H]9C[C@H]8CO9)CSc8ccccc8)c(S(=O)(=O)C(F)(F)F)c7)cc6)CC5)C4)CC3)CC2)C(C)(C)C)cc1", "note": "[WH244]", "values": [{"measurement": "Ki", "setting": "BCL-2 R110A", "value": "8 ± 1.2", "unit": "nM"}, {"measurement": "PolyUb chain formation retained by E114A, share of the WT activity", "setting": "BCL-2 E114A", "value": "10-12%"}, {"measurement": "Ternary complex formation with BCL-xL (comparison with 753b)", "setting": "[1]", "value": "tighter complex"}]}
